Test results: patent US20230310408A1, “TLR7 INHIBITOR IN COMBINATION WITH PREDNISOLONE OR HYDROXYCHLOROQUINE FOR TREATING CUTANEOUS LUPUS ERYTHEMATOSUS” (priority 2020, published 2023)
“Also recorded” adds a separate entry of the source.

Legend:
Type in all cases: in vivo, mouse
Female MRL/lpr mice [1] = assay: Cutaneous model of lupus: female MRL/lpr mice treated orally once daily for 8 weeks;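 on all read-outs here: mice aged 12–14 weeks, randomized by anti-dsDNA antibody titer and urinary NGAL, treated groups compared against vehicle controls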; conditions: for % Survival / anti-dsDNA, anti-Ro and anti-smRNP auto-antibody titers / kidney injury markers (proteinuria and urinary NGAL) / cutaneous lesions (number of lesions on face, neck, head, ear; total lesions) / erythema of cutaneous lesions (neck, ear, total): oral once daily; for % Survival / cutaneous lesions (number of lesions on face, neck, head, ear; total lesions) / erythema of cutaneous lesions (neck, ear, total): 8 weeks; for anti-dsDNA, anti-Ro and anti-smRNP auto-antibody titers: 8 weeks (FIG. 3); for anti-dsDNA, anti-Ro and anti-smRNP auto-antibody titers / kidney injury markers (proteinuria and urinary NGAL): at 0.25 and 0.75 mg/kg Compound (I); for kidney injury markers (proteinuria and urinary NGAL): 8 weeks (FIG. 4); for cutaneous lesions (number of lesions on face, neck, head, ear; total lesions): versus vehicle (FIG. 1); for erythema of cutaneous lesions (neck, ear, total): versus vehicle (FIG. 2)
Female MRL/lpr mice [2] = assay: Combination studies in MRL/lpr model of lupus, established disease; conditions: 5 weeks; for total number of cutaneous lesions: doses of Table 2 (FIG. 6); for neck erythema of cutaneous lesions: doses of Table 2 (FIG. 7); for ear erythema of cutaneous lesions: doses of Table 2 (FIG. 8); for total erythema of cutaneous lesions: doses of Table 2 (FIG. 9); for kidney injury marker proteinuria: doses of Table 2 (FIG. 10); for kidney injury marker urinary NGAL: doses of Table 2 (FIG. 11)
Method: Female MRL/lpr mice of 15 weeks of age were treated for 5 weeks. […] Total skin lesions score includes cumulative score of Neck/Back, Face, Head and Ear lesions

Female MRL/lpr mice [3] = assay: Combination studies in MRL/lpr model of lupus, advanced disease; conditions: 5 weeks; for total number of cutaneous lesions: doses of Table 2 (FIG. 12); for neck erythema of cutaneous lesions: doses of Table 2 (FIG. 13, FIG. 14); for ear erythema of cutaneous lesions: doses of Table 2 (FIG. 15); for total erythema of cutaneous lesions: doses of Table 2 (FIG. 16)
Method: Female MRL/lpr mice of 16 weeks of age were treated for 5 weeks. […] Total skin lesions score includes cumulative score of Neck/Back, Face, Head and Ear lesions.

| Compound | anti-dsDNA, anti-Ro and anti-smRNP auto-antibody titers (Female MRL/lpr mice [1]) | kidney injury markers (proteinuria and urinary NGAL) (Female MRL/lpr mice [1]) | cutaneous lesions (number of lesions on face, neck, head, ear; total lesions) (Female MRL/lpr mice [1]) | erythema of cutaneous lesions (neck, ear, total) (Female MRL/lpr mice [1]) | total number of cutaneous lesions (Female MRL/lpr mice [2]) | neck erythema of cutaneous lesions (Female MRL/lpr mice [2]) | ear erythema of cutaneous lesions (Female MRL/lpr mice [2]) | total erythema of cutaneous lesions (Female MRL/lpr mice [2]) | kidney injury marker proteinuria (Female MRL/lpr mice [2]) | kidney injury marker urinary NGAL (Female MRL/lpr mice [2]) | total number of cutaneous lesions (Female MRL/lpr mice [3]) | neck erythema of cutaneous lesions (Female MRL/lpr mice [3]) | ear erythema of cutaneous lesions (Female MRL/lpr mice [3]) | total erythema of cutaneous lesions (Female MRL/lpr mice [3]) | further results |
| --- | --- | --- | --- | --- | --- | --- | --- | --- | --- | --- | --- | --- | --- | --- | --- |
| Cc1c(-c2[nH]c3ccc(C4CCN(CC(N)=O)CC4)cc3c2C(C)C)cn2ncnc2c1C [Compound (I), 2-(4-(2-(7,8-dimethyl-[1,2,4]triazolo[1,5-a]pyridin-6-yl)-3-isopropyl-1H-indol-5-yl)piperidin-1-yl)acetamide] | Inhibition; also recorded: significant suppression | reduction; also recorded: Inhibition; also recorded: suppression | significant and robust dose-dependent suppression; also recorded: Dose-dependent inhibition | suppressed; also recorded: significant reduction; also recorded: Dose-dependent inhibition | suppressed | suppressed | suppressed | suppressed | suppression | suppression | suppressed | suppressed; also recorded: increased suppression of erythema of cutaneous lesions on the neck of mice compared the treatment with hydroxychloroquine | suppressed | suppressed | % Survival (Female MRL/lpr mice [1]; 0.005 mg/kg): 87%; % Survival (Female MRL/lpr mice [1]; 0.02 mg/kg): 93%; % Survival (Female MRL/lpr mice [1]; 0.25 mg/kg): 100%; % Survival (Female MRL/lpr mice [1]; 0.75 mg/kg): 100%; Type I IFN response gene expression (Female MRL/lpr mice [1]; at 0.25 and 0.75 mg/kg, blood, qPCR): inhibited; % Survival (Female MRL/lpr mice [2]; 0.25 mg/kg): 100%; % Survival (Female MRL/lpr mice [3]; 0.25 mg/kg): 93.3% |
| CC12C=CC(=O)C=C1CCC1C2C(O)CC2(C)C1CCC2(O)C(=O)CO (stereo not shown) [Prednisolone, 11,17-dihydroxy-17-(2-hydroxyacetyl)-10,13-dimethyl-6,7,8,9,10,11,12,13,14,15,16,17-dodecahydrocyclopenta[a] phenanthren-3-one] | inhibition | reduction | inhibition | reduction | suppression of cutaneous lesions but less than treatment with Compound (I) | suppression | suppression of erythema of cutaneous lesions on the ear of mice but less than treatment with Compound (I) | suppression | suppression | suppression | suppression of cutaneous lesions but less than treatment with Compound (I) | suppression | suppression of erythema of cutaneous lesions on the ear of mice but less than treatment with Compound (I) | suppression | % Survival (Female MRL/lpr mice [1]; 10 mg/kg): 100%; % Survival (Female MRL/lpr mice [2]; 1 mg/kg): 93.3%; % Survival (Female MRL/lpr mice [2]; 10 mg/kg): 93.3%; % Survival (Female MRL/lpr mice [3]; 1 mg/kg): 86.6%; % Survival (Female MRL/lpr mice [3]; 10 mg/kg): 93.3% |
| hydroxychloroquine [HCQ] | – | – | – | – | suppression of cutaneous lesions but less than treatment with Compound (I) | suppression | suppression of erythema of cutaneous lesions on the ear of mice but less than treatment with Compound (I) | suppression | suppression | suppression | suppression of cutaneous lesions but less than treatment with Compound (I) | suppression | suppression of erythema of cutaneous lesions on the ear of mice but less than treatment with Compound (I) | suppression | % Survival (Female MRL/lpr mice [2]; 100 mg/kg): 93.3%; % Survival (Female MRL/lpr mice [3]; 100 mg/kg): 100% |
